Test results from US9994533B2, “Method of preparing ATG's analogue, and the application of ATG and it's analogue” (Longhua Hospital Shanghai University of Traditional Chinese …, priority 2016, dated 2018).

Key:
[1] = system: NOX4; experiment: NOX4 protein expression in human immortal podocytes under high glucose (Western blot); assay type: cell-based; settings: ATG 10 μmol/L
Excerpt: The detection method of Western Blot and mRNA used in the present embodiment is a detection method commonly used by person skilled in the art, and the specific detection method is described in “Molecular Biology Laboratory Manual” (People's Military Medical Press, published in 2011 Jun. 1). 3.1 Western blot and Realtime PCR confirmed that ATG in human immortal podocytes can inhibit the overexpression of NOX4 caused by high glucose stimuli, see table 5 and FIG. 6. The expression of NOX4 in the total protein, membrane protein and mitochondrial protein of human immortal podocytes was detected in the experiment. […] The meanings of the symbols in FIG. 6 are as follows: HG: high glucose (glucose […]); T: total protein; Tmeb cell membrane protein; Mito: mitochondrial protein.

[2] = target: T1, Keratin, type I cytoskeletal 17 (Homo sapiens, UniProt Q04695); experiment: DARTS mass spectrometry of 293T lysate after ATG; assay type: binding; settings: ATG 300 μM, pronase 1:1000, K1C17_HUMAN
T1 construct: endogenous in cells; host or cells: 293T
T1 sequence (Q04695 1-432): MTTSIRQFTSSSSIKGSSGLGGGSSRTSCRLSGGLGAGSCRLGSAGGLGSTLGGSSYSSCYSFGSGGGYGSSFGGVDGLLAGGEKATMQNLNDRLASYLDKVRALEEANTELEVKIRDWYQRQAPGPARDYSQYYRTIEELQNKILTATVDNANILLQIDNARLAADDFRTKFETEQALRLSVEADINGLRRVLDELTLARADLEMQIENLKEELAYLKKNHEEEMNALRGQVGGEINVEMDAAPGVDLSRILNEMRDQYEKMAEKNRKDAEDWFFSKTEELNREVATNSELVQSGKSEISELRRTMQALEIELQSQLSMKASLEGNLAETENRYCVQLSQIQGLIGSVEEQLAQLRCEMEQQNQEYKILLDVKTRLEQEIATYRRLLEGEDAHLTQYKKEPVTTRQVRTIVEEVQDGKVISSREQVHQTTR
Description: (§1) 293T cells were digested with M-PER mammalian protein extraction buffer (78501 ThermoFisher) and phosphatase inhibitor (50 mM NaF, 10 mM β-glycerophosphate, 5 mM sodium pyrophosphate, 2 mM Na3VO4); and the protein concentration is determined by Bradford method (500-0006 Bio-rad). ATG was either added or not in the cell lysate. If added, the concentration of ATG was 300 μM. The cells were incubated at room temperature for 1 h. The cells were then lysed by incubating for 20 minutes at room temperature with different concentrations of pronase at 1:1000 (10165921001, Roche). The two groups of lysates are subjected to mass spectrometry and then compared.

[3] = target: T2, Keratin, type II cytoskeletal 5 (Homo sapiens, UniProt P13647); experiment: DARTS mass spectrometry of 293T lysate after ATG; assay type: binding; settings: ATG 300 μM, pronase 1:1000, K2C5_HUMAN
T2 construct: endogenous in cells; host or cells: 293T
T2 sequence (P13647 1-590): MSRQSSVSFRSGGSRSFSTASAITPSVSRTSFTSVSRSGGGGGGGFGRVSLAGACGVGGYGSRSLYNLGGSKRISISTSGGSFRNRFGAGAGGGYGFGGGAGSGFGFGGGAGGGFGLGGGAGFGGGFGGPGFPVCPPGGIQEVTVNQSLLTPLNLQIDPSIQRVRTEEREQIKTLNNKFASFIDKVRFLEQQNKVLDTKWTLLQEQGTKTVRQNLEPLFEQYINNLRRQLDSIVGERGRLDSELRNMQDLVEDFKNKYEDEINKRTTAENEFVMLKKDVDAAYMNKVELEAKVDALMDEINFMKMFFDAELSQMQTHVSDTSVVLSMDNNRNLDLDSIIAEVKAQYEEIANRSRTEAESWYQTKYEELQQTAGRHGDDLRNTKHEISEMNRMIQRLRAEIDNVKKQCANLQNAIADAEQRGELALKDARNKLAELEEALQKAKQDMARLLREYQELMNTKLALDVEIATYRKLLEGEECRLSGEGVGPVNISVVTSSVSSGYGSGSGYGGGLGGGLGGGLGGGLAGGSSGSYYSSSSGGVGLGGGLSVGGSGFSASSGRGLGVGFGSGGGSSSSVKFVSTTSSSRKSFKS
Description: as §1

[4] = target: T3, Heterogeneous nuclear ribonucleoprotein H2 (Homo sapiens, UniProt P55795); experiment: DARTS mass spectrometry of 293T lysate after ATG; assay type: binding; settings: ATG 300 μM, pronase 1:1000, HNRH2_HUMAN
T3 construct: endogenous in cells; host or cells: 293T
T3 sequence (P55795 1-449): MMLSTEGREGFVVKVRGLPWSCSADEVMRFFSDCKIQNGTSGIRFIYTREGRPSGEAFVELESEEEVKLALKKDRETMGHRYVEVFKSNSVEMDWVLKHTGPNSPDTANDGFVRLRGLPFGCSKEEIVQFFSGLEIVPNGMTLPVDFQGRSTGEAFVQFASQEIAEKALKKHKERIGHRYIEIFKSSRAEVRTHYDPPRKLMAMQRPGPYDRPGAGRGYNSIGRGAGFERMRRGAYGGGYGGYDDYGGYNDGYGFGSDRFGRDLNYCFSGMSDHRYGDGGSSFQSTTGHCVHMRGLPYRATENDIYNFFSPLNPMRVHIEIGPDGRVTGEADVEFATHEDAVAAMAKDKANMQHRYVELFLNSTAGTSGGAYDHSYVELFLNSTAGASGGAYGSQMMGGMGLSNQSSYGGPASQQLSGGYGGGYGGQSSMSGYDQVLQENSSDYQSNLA
Description: as §1

[5] = target: T4, Keratin, type II cytoskeletal 6A (Homo sapiens, UniProt P02538); experiment: DARTS mass spectrometry of 293T lysate after ATG; assay type: binding; settings: ATG 300 μM, pronase 1:1000, K2C6A_HUMAN
T4 construct: endogenous in cells; host or cells: 293T
T4 sequence (P02538 2-564 limits assumed): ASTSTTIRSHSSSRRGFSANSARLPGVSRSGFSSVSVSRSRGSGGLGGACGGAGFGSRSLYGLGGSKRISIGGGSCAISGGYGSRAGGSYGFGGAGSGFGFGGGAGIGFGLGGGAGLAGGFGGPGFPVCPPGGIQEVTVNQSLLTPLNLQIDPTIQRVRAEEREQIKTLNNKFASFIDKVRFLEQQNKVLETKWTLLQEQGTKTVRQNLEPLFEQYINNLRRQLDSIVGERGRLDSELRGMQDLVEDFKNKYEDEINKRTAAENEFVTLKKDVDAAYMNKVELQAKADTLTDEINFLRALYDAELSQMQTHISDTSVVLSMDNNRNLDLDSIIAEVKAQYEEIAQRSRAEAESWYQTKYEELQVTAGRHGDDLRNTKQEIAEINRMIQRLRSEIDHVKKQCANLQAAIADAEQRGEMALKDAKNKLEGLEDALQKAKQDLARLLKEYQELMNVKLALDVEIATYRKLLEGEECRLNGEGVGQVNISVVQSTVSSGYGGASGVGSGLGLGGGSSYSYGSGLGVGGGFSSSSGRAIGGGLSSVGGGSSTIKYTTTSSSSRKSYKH
Description: as §1

COc1cc(C[C@H]2C(=O)OC[C@@H]2Cc2ccc(OC)c(OC)c2)ccc1O [ATG, Arctigenin]
T-NOX4/β-actin mean ([1]; High glucose-ATG, total protein, podocytes): 1.13
expression of NOX4 in total protein, membrane protein and mitochondrial protein ([1]; high glucose, FIG. 6): can inhibit the expression of NOX4 in the above three kinds of structures
Ratio (ATG/DMSO) [2]: 4.7
Spectral Count (ATG) [2]: 7
Ratio (ATG/DMSO) [3]: 4.7
Spectral Count (ATG) [3]: 7
Ratio (ATG/DMSO) [4]: 6.8
Spectral Count (ATG) [4]: 12
Ratio (ATG/DMSO) [5]: 5.2
Spectral Count (ATG) [5]: 8
